The values that follow come from paper PMC12040169 (PLOS Biology, 2025).

For one data set, the system named is HeLa. To be noted: bulk resorufin, single well, 28.5 h, 10 µM, Bulk resorufin fluorescence.
Another data set in a line: in vitro. To be noted: human, hela cells, % viability.

Several values for one entry are separate records, joined by “and”; a condition that tells them apart may be missing. Equal entries are not always repeated.

What is called viability is a read-out of living cells in per cent, often relative to untreated cells.

Take `C[C@H](Cn1c(=O)oc2ccccc21)NC(=O)CC1c2ccccc2Oc2ccccc21` [CBK286201]: the % viability in the data set on HeLa came out at 96.8%. In “in vitro”, the viability at 28.5 h, 10 µM is 90.1%.
As to `CCCC(=O)Nc1cc2ccccc2c(N2CCNCC2)n1` [CBK024608T], in the data set on HeLa, the % viability came out at 104%. For the same compound, the viability at 28.5 h, 10 µM in “in vitro” is 102%.
In the same order, the values of `CNC(=S)N1CCN(c2nsc3ccccc23)CC1` [CBK288515] are 83.2% and 83.5%.
In the same order, the values of `O=C(O)CC1C(=O)NCCN1Cc1cccc(Oc2ccccc2)c1` (stereo not shown) [CBK270023] are 103% and 91.4%.
The like results for `O=C1CCCc2c1nc(-c1ccccc1Cl)n2O` [CBK271948] were, in that order, 82.2% and 89.5%.
With `O=C(NC1CCCCC1)[C@H]1C=CCN1C(=O)c1ccccc1F` [CBK283334], the % viability with HeLa worked out at 98%. The viability at 28.5 h, 10 µM in “in vitro” was found to be 85.6%.
The like results for `CC(C)[C@@H](Cn1nc(C2CC2)ccc1=O)NC(=O)C1CC1` [CBK284309] were, in that order, 85.9% and 86.1%.
The like results for `O=C(CN1C(=O)C2CCCCC2C1=O)Nc1ccccc1C(=O)O` (stereo not shown) [CBK264130] were, in that order, 108% and 91.5%.
The like results for `O=C(O)CCCC(=O)N1CCN(Cc2ccc3c(c2)OCO3)CC1` [CBK074752] were, in that order, 80.8% and 99.3%.
`O=C(CN1C(=O)[C@H]2CCCN2C(=O)c2ccccc21)Nc1ccccc1-c1ccccc1` [CBK286321]: the % viability with HeLa amounted to 94.1%. Besides, the viability at 28.5 h, 10 µM in the data set “in vitro” was 93.9%.
In the same order, the values of `CC(C)(C)OC(=O)N1CCC[C@H]1C(=O)c1nccs1` [CBK284282] are 95.5% and 108%.
In the same order, the values of `O=C(C1CCC1)N1CCC[C@H]1Cn1nc(-c2cccs2)ccc1=O` [CBK284251] are 78.8% and 80.9%.
For the compound `COc1ccc2[nH]cc(CC(=O)N3CCC(C#N)(c4ccccc4)CC3)c2c1` [CBK091403], the % viability with HeLa came out at 105%. Besides, the viability at 28.5 h, 10 µM in the data set “in vitro” (bulk resorufin, single well) worked out at 96.6%.
`O=S(=O)(Nc1ncc(Br)c2cccnc12)c1ccc(-c2ccccc2)cc1` [CBK073885]: the % viability with HeLa was 110%. Besides, the viability at 28.5 h, 10 µM in “in vitro” is 98.8%.
Regarding `Cc1cc2c(cc1C)NC(CC(=O)Nc1ccc(Cl)cc1)C(=O)N2` (stereo not shown) [CBK263245], the % viability in the data set on HeLa was 90.5%. Also, the viability at 28.5 h, 10 µM in the data set “in vitro” was 83.4%.
The like results for `CC1Cc2ccccc2N1c1ncnc2nc[nH]c12` (stereo not shown) [CBK287388] were, in that order, 66.9% and 66.8%.
The like results for `Nc1nc2cccnc2cc1-c1cccc(OCc2ccccc2)c1` [CBK081206] were, in that order, 105% and 99.2%.
Regarding `CCC(Sc1nc(C)c(Cc2ccccc2)c(=O)[nH]1)C(=O)O` (stereo not shown) [CBK270058], the % viability with HeLa turned out to be 91.7%. Also, the viability at 28.5 h, 10 µM in “in vitro” amounted to 91.2%.
The like results for `CCn1cc(C(=O)NN)c(=O)c2cc(F)c(N3CCOCC3)cc21` [CBK263050] were, in that order, 107% and 99.9%.
`Fc1ccc(COc2cc(N3CCCC3)ncn2)cc1` [CBK115675]: the % viability with HeLa turned out to be 96.4%. Besides, in the data set “in vitro”, the viability at 28.5 h, 10 µM came to 109%.
In the same order, the values of `CC(=O)Nc1ccc(S(N)(=O)=O)c2ccccc12` [CBK288522] are 94% and 83.5%.
As for `C[C@@H]1CN2CCCC2CN1Cc1cccc2cccnc12` (stereo partly shown) [CBK284551], the % viability in the data set on HeLa was determined as 87.8%. The viability at 28.5 h, 10 µM in the data set “in vitro” was 82.4%.
Turning to `O=S(=O)(/C=C/c1ccncc1)NCc1ccc2c(c1)OCO2` [CBK018566], the % viability in the data set on HeLa was found to be 92.8%. Moreover, in “in vitro”, the viability at 28.5 h, 10 µM was 91.3%.
In the same order, the values of `O=C(NC1CCCCC1)[C@H]1C=CCN1C(=O)c1ccc(F)cc1` [CBK282324] are 86.4% and 93.9%.
As for `COc1ccccc1CC(=O)Nc1ccc(O)cc1C(=O)O` [CBK264305], in the data set with HeLa, the % viability turned out to be 91.2%. For the same compound, in the data set “in vitro”, the viability at 28.5 h, 10 µM was found to be 105%.
The like results for `COC(=O)c1ccc(CN2CC3CCCN3C[C@@H]2C)cc1` (stereo partly shown) [CBK285403] were, in that order, 103% and 111%.
The like results for `FC(F)(F)c1ccc(Sc2ccccn2)nc1` [CBK093785] were, in that order, 111% and 100%.
The like results for `Clc1ccc(CN2CCC(Oc3cncc(OCC4COc5ccccc5O4)n3)C2)cc1Cl` (stereo not shown) [CBK084361] were, in that order, 90.5% and 107%.
Consider `O=C(O)CCCNc1ccc(S(=O)(=O)N2CCCCC2)cc1` [CBK261001], for which the % viability with HeLa came out at 90.5%. The viability at 28.5 h, 10 µM in the data set “in vitro” stood at 96.7%.
The like results for `C[C@H]1CN2CCCC2CN1Cc1ccc(CN(C)C)cc1` (stereo partly shown) [CBK285438] were, in that order, 101% and 88.9%.
In the same order, the values of `C[C@H](Cn1c(C(F)(F)F)cc2cccnc21)NC(=O)c1ccco1` [CBK282933] are 94.6% and 91.5%.
The like results for `Nc1ccc2cc(-c3ccccc3)cnc2n1` [CBK061881] were, in that order, 94.9% and 81.7%.
Regarding `CCCC(=O)N1CCC[C@@H](Cn2nc(-c3cccs3)ccc2=O)C1` [CBK282245], the % viability with HeLa was 98%. For the same compound, the viability at 28.5 h, 10 µM in “in vitro” is 88.5%.
The like results for `COc1ccc(NC(=O)[C@@H]2C=CCN2C(=O)c2ccco2)cc1` [CBK284292] were, in that order, 77.2% and 88.5%.
On to `CC(C)NC(=O)n1nccc1-c1cc(-c2ccccc2)no1` [CBK086581], for which, in the data set on HeLa, the % viability was determined as 82.6%. Besides, the viability at 28.5 h, 10 µM in “in vitro” turned out to be 102%.
The like results for `O=C(NCCN1CCCC1)c1cc2cc(F)ccc2[nH]1` [CBK107278] were, in that order, 105% and 106%.
The like results for `C[C@H]1CN2C[C@H](O)CC2CN1Cc1cccc(Oc2ccccc2)c1` (stereo partly shown) [CBK284566] were, in that order, 96.2% and 93.6%.
The like results for `C=CCNC(=O)[C@@H]1C=CCN1C(=O)c1ccccc1F` [CBK283052] were, in that order, 98.9% and 105%.
`COc1cccc(CN2CC3CCCN3C[C@H]2C)c1` (stereo partly shown) [CBK285442]: in the data set on HeLa, the % viability was found to be 105%. Further, in “in vitro”, the viability at 28.5 h, 10 µM is 113%.
The like results for `O=C(CN1C(=O)[C@H]2CCCN2C(=O)c2ccccc21)N1CCCCC1` [CBK282435] were, in that order, 80.4% and 90.6%.
As for `N#CCCCN1CCN(c2nccnc2OC2CCCCC2)CC1` [CBK082841T], the % viability in the data set on HeLa stood at 107%. In “in vitro”, the viability at 28.5 h, 10 µM was 87.4%.
In the same order, the values of `CC(C)(CC(=O)O)CC(=O)Nc1cccc(CCc2ccncc2)c1` [CBK286989] are 84.8% and 99.3%.
In the same order, the values of `Cc1ccc(S(=O)(=O)Nc2ccsc2C(=O)N2CCOCC2)cc1` [CBK004570] are 107% and 99.9%.
In the same order, the values of `CN1CCN(S(=O)(=O)c2cccc3cccnc23)CC1` [CBK051241] are 93.2% and 106%.
On to `C[C@H](Cn1nc2c(cc1=O)CCCCC2)NC(=O)c1cccc(F)c1` [CBK284558], for which, in the data set on HeLa, the % viability worked out at 90%. Moreover, the viability at 28.5 h, 10 µM in “in vitro” was 85.8%.
In the same order, the values of `O=C(O)CCCCCN1C(=O)CC(c2ccc(Cl)cc2)CC1=O` [CBK287245] are 102% and 104%.
As to `COc1ccc(-c2cc(C3CC3)nc(SCC(=O)O)c2C#N)cc1` [CBK262690], the % viability in the data set with HeLa is 90.1% and 95%. Further, in “in vitro”, the viability at 28.5 h, 10 µM came to 91.3%.
Turning to `Cc1ccc(CN2CC3CCCN3C[C@H]2C)o1` (stereo partly shown) [CBK285407], the % viability with HeLa came to 104%. Besides, in the data set “in vitro”, the viability at 28.5 h, 10 µM was 87.1%.
The like results for `CCOC(=O)C1=C(C)NC(=O)NC1c1ccc(Cl)cc1Cl` (stereo not shown) [CBK072057] were, in that order, 91% and 93.2%.
The like results for `CCc1cc(CN(CC)CC)n[nH]1` [CBK018654] were, in that order, 94.5% and 114%.
For the compound `C[C@@H]1CN2CCCC2CN1Cc1ccc(Br)o1` (stereo partly shown) [CBK285410], the % viability in the data set on HeLa is 101%. For the same compound, in the data set “in vitro”, the viability at 28.5 h, 10 µM turned out to be 99.7%.
For `CC(C)Nc1nc(-c2cccnc2)nc2ccccc12` [CBK073006], in the data set with HeLa, the % viability was 94.6% and 102%. Further, the viability at 28.5 h, 10 µM in the data set “in vitro” is 91.1%.
In the case of `O=C(CSc1nc2ccccc2[nH]1)Nc1ccccc1` [CBK073089], the % viability with HeLa came out at 91.6%. Further, the viability at 28.5 h, 10 µM in the data set “in vitro” came to 110%.
For the compound `CC(C)C(=O)N1CCC[C@H]1Cn1nc(-c2cccs2)ccc1=O` [CBK285469], the % viability in the data set with HeLa came to 96.1%. Also, in the data set “in vitro”, the viability at 28.5 h, 10 µM came out at 97.8%.
In the same order, the values of `C[C@@H](Cn1nnc2ccccc21)NC(=O)C1CC1` [CBK284312] are 81.5% and 88.5%.
The like results for `CC[C@H](Cn1ncc2ccccc2c1=O)NC(=O)c1cccs1` [CBK284301] were, in that order, 90.5% and 96.7%.
In the same order, the values of `CS(=O)(=O)Nc1cc2ccccc2c(-c2ccc(S(C)(=O)=O)cc2)n1` [CBK085756] are 107% and 95.6%.
`CC[C@@H](Cn1ncc2ccccc2c1=O)NC(=O)C1CC1` [CBK282385]: the % viability in the data set with HeLa was 91.3%. The viability at 28.5 h, 10 µM in the data set “in vitro” was 88.3%.
The like results for `Cn1cc(C(=O)N2C3CCC(C3)[C@@H]2COc2ccc(F)cc2)cn1` (stereo partly shown) [CBK284605] were, in that order, 112% and 93.7%.
The like results for `C[C@@H]1CN2CCCC2CN1Cc1ccc(F)cc1F` (stereo partly shown) [CBK285455] were, in that order, 97.8% and 106%.
In the same order, the values of `COc1ccc(CN2CC3CCCN3C[C@H]2C)cc1` (stereo partly shown) [CBK285412] are 103% and 111%.
As for `c1cncc(COc2cncc(OC3CCN(CCc4c[nH]c5ccccc45)C3)n2)c1` (stereo not shown) [CBK084471], in the data set on HeLa, the % viability came out at 113%. Also, the viability at 28.5 h, 10 µM in the data set “in vitro” came to 111%.
